Measured values: US20180221546A1, “IMPLANTABLE ORTHOPEDIC DEVICES HAVING ANTIMICROBIAL COATINGS” (TELEFLEX MEDICAL INCORPORATED, priority 2015, published 2018)
In brackets after ≈: the same amount, converted by molar mass.

Assays:
Format in all cases: cell-based
[1] = system: Acinetobacter baumannii; test: MIC and MBC by broth dilution in 96-well plate
Experimental: (§1) From the stock solutions of the drugs Alexidine and Chlorhexidine, dilution series was prepared in the wells of a 96-well plate by performing 1:1 dilutions to cover a concentration range of 0-512 ppm. Ten microliters from each of the drug concentration was mixed with […] of culture broth containing approximately 10^5CFU/mL of bacteria or yeast species. The test plate was incubated for 18-24 hours after which absorbance of each well was read at 670 nm on a BioTek plate reader. […] The wells containing growth should have had higher absorbance reading when compared to the drug control wells. After reading the absorbance for the MIC, 10 μl of each test well was plated onto the surface of D/E agar in 6 or 12 well microtiter plates to determine the MBC. The plates were incubated inverted at 37° C. for 24-48 hours after which numbers of colonies were counted. The MBC value was the lowest concentration of the drug at which no growth was observed.

[2] = system: Candida albicans; test: MIC and MBC by broth dilution in 96-well plate
Experimental: as §1

[3] = system: Enterobacter cloacae; test: MIC and MBC by broth dilution in 96-well plate
Experimental: as §1

[4] = system: Enterococcus faecalis; test: MIC and MBC by broth dilution in 96-well plate
Experimental: as §1

[5] = system: Proteus mirabilis; test: MIC and MBC by broth dilution in 96-well plate
Experimental: as §1

[6] = system: Pseudomonas aeruginosa; test: MIC and MBC by broth dilution in 96-well plate
Experimental: as §1

[7] = system: Staphylococcus aureus; test: MIC and MBC by broth dilution in 96-well plate
Experimental: as §1

[8] = system: Candida albicans; test: Time to Kill; details: 128 ppm; C. albicans challenge 10^4-10^5 CFU/mL
Experimental: (§2) Alexidine and Chlorhexidine, both at a concentration of 128 ppm were exposed to a Gram positive bacteria (Staphylococcus aureus), a Gram negative bacteria (Pseudomonas aeruginosa), and a fungus (Candida albicans). The challenge concentration for each organism was 10^4-10^5 CFU/mL, and the exposure time varied from 0.5-60 minutes. […] Complete kill of all three organisms was observed within 0.5 -1 minute of Alexidine exposure.

[9] = system: Pseudomonas aeruginosa; test: Time to Kill; details: 128 ppm; P. aeruginosa challenge 10^4-10^5 CFU/mL
Experimental: as §2

[10] = system: Staphylococcus aureus; test: Time to Kill; details: 128 ppm; S. aureus challenge 10^4-10^5 CFU/mL
Experimental: as §2

SMILES: CCCCC(CC)CNC(=N)NC(=N)NCCCCCCNC(=N)NC(=N)NCC(CC)CCCC (stereo not shown) [Alexidine]
- MBC [1]: 1 mg/L (≈ 1.97 µM)
- MIC [1]: 0.5 mg/L (≈ 0.983 µM)
- MBC [2]: 1 mg/L (≈ 1.97 µM)
- MIC [2]: 1 mg/L (≈ 1.97 µM)
- MBC [3]: 2 mg/L (≈ 3.93 µM)
- MIC [3]: 2 mg/L (≈ 3.93 µM)
- MBC [4]: 2 mg/L (≈ 3.93 µM)
- MIC [4]: 0.5 mg/L (≈ 0.983 µM)
- MBC [5]: 2 mg/L (≈ 3.93 µM)
- MIC [5]: 1 mg/L (≈ 1.97 µM)
- MBC [6]: 128 mg/L (≈ 252 µM)
- MIC [6]: 8 mg/L (≈ 15.7 µM)
- MBC [7]: 1 mg/L (≈ 1.97 µM)
- MIC [7]: 0.5 mg/L (≈ 0.983 µM)
- Time to complete kill [8]: 0.5 to 1 min
- Time to complete kill [9]: 0.5 to 1 min
- Time to complete kill [10]: 0.5 to 1 min

SMILES: [H]/N=C(\N/C(=N/[H])NCCCCCCNC(=N)NC(=N)Nc1ccc(Cl)cc1)Nc1ccc(Cl)cc1 [Chlorhexidine]
- MBC [1]: 32 mg/L (≈ 63.3 µM)
- MIC [1]: 16 mg/L (≈ 31.7 µM)
- MBC [2]: 4 mg/L (≈ 7.91 µM)
- MIC [2]: 2 mg/L (≈ 3.96 µM)
- MBC [3]: 32 mg/L (≈ 63.3 µM)
- MIC [3]: 2 mg/L (≈ 3.96 µM)
- MBC [4]: 64 mg/L (≈ 127 µM)
- MIC [4]: 2 mg/L (≈ 3.96 µM)
- MBC [5]: 8 mg/L (≈ 15.8 µM)
- MIC [5]: 8 mg/L (≈ 15.8 µM)
- MBC [6]: 64 mg/L (≈ 127 µM)
- MIC [6]: 8 mg/L (≈ 15.8 µM)
- MBC [7]: 16 mg/L (≈ 31.7 µM)
- MIC [7]: 0.5 mg/L (≈ 0.989 µM)
- Time to complete kill [8]: 60 min
- Time to complete kill [9]: 5 min
- Time to complete kill [10]: 60 min
